Tested on: mold
Test: Mold growth on white bread loaves (Dough Formulation A) coated with antimicrobial powders, Example 1
Description: All of the ingredients except for the salt were added to a 20 qt Hobart mixer, and mixed with a spiral hook on the 1st speed setting (low) for two minutes. […] The salt was added, followed by mixing at the 2nd speed setting for an additional 3 minutes until full dough development. […] Next, a Gemini Straight Grain Moulder was used, according to the settings in Table 4 below, to sheet and mould the dough pieces. The shaped dough pieces were then evenly coated with 2 grams of various antimicrobial powders containing different antimicrobial agents, as described below, and then placed into 1-lb loaf pans. […] After baking, the loaves were removed from the oven and […]. The loaves were cooled on wire racks for 1 hour and then bagged in poly bags with twist ties. […] Each of the antimicrobial powders used above was prepared by adding the ingredients in the tables below to a 5 qt Hobart mixer and blending with a paddle attachment for 10 minutes.

Compound	Mold Inhibition
Polylysine	Moderately Effective
O=C(O)/C=C/C(=O)O [Fumaric Acid]	Slightly Effective
O=C([O-])c1ccccc1.[Na+] [Sodium Benzoate]	Moderately Effective
C[C@@H]1C/C=C/C=C/C=C/C=C/[C@H](O[C@@H]2O[C@H](C)[C@@H](O)[C@H](N)[C@@H]2O)C[C@@H]2O[C@](O)(C[C@@H](O)C[C@H]3O[C@@H]3/C=C/C(=O)O1)C[C@H](O)[C@H]2C(=O)O [Natamycin, reference compound]	Effective
C/C=C/C=C/C(=O)O [Sorbic Acid]	Effective
C/C=C/C=C/C(=O)[O-].[K+] [Potassium Sorbate]	Effective
CCC(=O)[O-].[Na+] [Sodium Propionate]	Moderately Effective
CCC(=O)[O-].CCC(=O)[O-].[Ca+2] [Calcium Propionate]	Slightly Effective
CC(=O)O.CC(=O)[O-].[Na+] [Sodium Diacetate]	Moderately Effective

Source: patent US20120251662A1, “ANTIMICROBIAL POWDERS FOR THE PREPARATION OF BAKERY PRODUCTS” (Caravan Ingredients Inc., priority 2011, published 2012)
